Paper PMC6479757, “Coralmycin Derivatives with Potent Anti-Gram Negative Activity Produced by the Myxobacteria Corallococcus coralloides M23” (Molecules, 2019)
Converted amounts (≈) assume the structure as drawn. Read-outs that look alike come from different tables or passages of the source.

What was measured:
[1] = system: Staphylococcus aureus RN 4220; experiment: Antibacterial susceptibility, broth microdilution MIC; format: cell-based; conditions: RN4220, 24 h
Experimental: Whole-cell antimicrobial activities were determined using a broth microdilution method described previously. Most of the test strains were grown to mid-log phase in Mueller–Hinton broth and diluted 1,000-fold in the same medium. Cells (10^5/mL) were dispensed at 0.2 mL/well in 96-well microtiter plates. Streptococcus pneumonia and Acinetobacter baumanii were grown in Todd–Hewitt medium and nutrient broth, respectively. […] Cells were treated with 0.05% DMSO as a vehicle control. The MICs were determined in triplicate by serial two-fold dilutions of the test compounds. […] Bacterial growth was determined by measuring the absorption at 650 nm using a microtiter enzyme-linked immunosorbent assay (ELISA) reader (Molecular Devices Corporation, Sunnyvale, CA, USA).

[2] = system: Acinetobacter baumannii KCTC 2508; experiment: as above; format: cell-based; conditions: KCTC2508, nutrient broth, 24-h incubation at 37 °C
Experimental: (§1) Whole-cell antimicrobial activities were determined using a broth microdilution method described previously. Most of the test strains were grown to mid-log phase in Mueller–Hinton broth and diluted 1,000-fold in the same medium. Cells (10^5/mL) were dispensed at 0.2 mL/well in 96-well microtiter plates. Streptococcus pneumonia and Acinetobacter baumanii were grown in Todd–Hewitt medium and nutrient broth, respectively. […]. Cells were treated with 0.05% DMSO as a vehicle control. The MICs were determined in triplicate by serial two-fold dilutions of the test compounds. […] Bacterial growth was determined by measuring the absorption at 650 nm using a microtiter enzyme-linked immunosorbent assay (ELISA) reader (Molecular Devices Corporation, Sunnyvale, CA, USA).

E. coli CCARM 1356 = experiment: as above; format: cell-based; conditions: Escherichia coli, CCARM1356, 24-h incubation at 37 °C
Experimental: as §1

E. coli KCTC 1682 = experiment: as above; format: cell-based; conditions: Escherichia coli
Experimental: as §1

[3] = system: Enterococcus faecalis KCTC 5191; experiment: as above; format: cell-based; conditions: KCTC5191, 24-h incubation at 37 °C
Experimental: as §1

[4] = system: Klebsiella pneumoniae KCTC 22057; experiment: as above; format: cell-based; conditions: for MIC: KCTC22057, Klebsiella pneumoniae KCTC 22057, 24-h incubation at 37 °C; for growth inhibition of K. pneumonia: at 32 μg/mL
Experimental: as §1

MRSA CCARM 3167 = experiment: as above; format: cell-based; conditions: Staphylococcus aureus, 24-h incubation at 37 °C
Experimental: as §1

MRSA CCARM 3506 = experiment: as above; format: cell-based; conditions: Staphylococcus aureus, 24-h incubation at 37 °C
Experimental: as §1

[5] = system: Pseudomonas aeruginosa KCTC 2004; experiment: as above; format: cell-based; conditions: for MIC: KCTC2004, Pseudomonas aeruginosa KCTC 2004, 24-h incubation at 37 °C; for antibacterial activities against P. aeruginosa: in words
Experimental: as §1

QRSA CCARM 3505 = experiment: as above; format: cell-based; conditions: Staphylococcus aureus
Experimental: as §1

QRSA CCARM 3519 = experiment: as above; format: cell-based; conditions: Staphylococcus aureus
Experimental: as §1

[6] = system: Streptococcus pneumonia KCTC 5412; experiment: as above; format: cell-based; conditions: Streptococcus pneumoniae, KCTC5412, Todd–Hewitt medium, 24-h incubation at 37 °C
Experimental: as §1

E. coli DNA gyrase = target: T1, E. coli DNA gyrase (Escherichia coli, UniProt P0AES4+P0AES6); experiment: DNA gyrase supercoiling assay; format: biochemical; conditions: relaxed plasmid, 37 °C for 30 min, agarose gel band densities; read-out: IC50, inhibition of the supercoiling activity of E. coli DNA gyrase
T1 construct: purchased TopoGEN TG2001G
Experimental: The inhibitory activities of coralmycins on the supercoiling activity of DNA gyrase were investigated using a ‘Purified E. coli DNA Gyrase Drug Screening Kit’ (TopoGEN #TG2001G, Buena Vista, CO, USA). […] The reaction was terminated by the addition of 2 μL of 10% (w/v) SDS and 2 μL of 10× DNA gel loading dye (bromophenol blue). Then, 20 μL of chloroform:isoamyl alcohol (24:1 mixture) was added, and the mixture was vortexed and then centrifuged. The samples in the blue phase were run on 1% (w/v) agarose gel and were visualized using ethidium bromide. All reactions were performed in triplicate. To calculate the IC50 values, the band densities were measured using ImageJ (National Institutes of Health, Bethesda, Maryland, MD, USA).

[7] = KCTC1682, 24-h incubation at 37 °C, Table 6 and Table S1, read-out: MIC
[8] = KCTC1682, Table 7, read-out: MIC, antibacterial activity on E. coli KCTC 1682
[9] = CCARM3505, QRSA CCARM 3505, 24-h incubation at 37 °C, read-out: MIC
[10] = CCARM3519, QRSA CCARM 3519, 24-h incubation at 37 °C, read-out: MIC
[11] = KCTC1682, 24 h, Table 7, read-out: MIC, antibacterial activity on E. coli KCTC 1682

T1 sequence (P0AES4 whole entry, one chain of several): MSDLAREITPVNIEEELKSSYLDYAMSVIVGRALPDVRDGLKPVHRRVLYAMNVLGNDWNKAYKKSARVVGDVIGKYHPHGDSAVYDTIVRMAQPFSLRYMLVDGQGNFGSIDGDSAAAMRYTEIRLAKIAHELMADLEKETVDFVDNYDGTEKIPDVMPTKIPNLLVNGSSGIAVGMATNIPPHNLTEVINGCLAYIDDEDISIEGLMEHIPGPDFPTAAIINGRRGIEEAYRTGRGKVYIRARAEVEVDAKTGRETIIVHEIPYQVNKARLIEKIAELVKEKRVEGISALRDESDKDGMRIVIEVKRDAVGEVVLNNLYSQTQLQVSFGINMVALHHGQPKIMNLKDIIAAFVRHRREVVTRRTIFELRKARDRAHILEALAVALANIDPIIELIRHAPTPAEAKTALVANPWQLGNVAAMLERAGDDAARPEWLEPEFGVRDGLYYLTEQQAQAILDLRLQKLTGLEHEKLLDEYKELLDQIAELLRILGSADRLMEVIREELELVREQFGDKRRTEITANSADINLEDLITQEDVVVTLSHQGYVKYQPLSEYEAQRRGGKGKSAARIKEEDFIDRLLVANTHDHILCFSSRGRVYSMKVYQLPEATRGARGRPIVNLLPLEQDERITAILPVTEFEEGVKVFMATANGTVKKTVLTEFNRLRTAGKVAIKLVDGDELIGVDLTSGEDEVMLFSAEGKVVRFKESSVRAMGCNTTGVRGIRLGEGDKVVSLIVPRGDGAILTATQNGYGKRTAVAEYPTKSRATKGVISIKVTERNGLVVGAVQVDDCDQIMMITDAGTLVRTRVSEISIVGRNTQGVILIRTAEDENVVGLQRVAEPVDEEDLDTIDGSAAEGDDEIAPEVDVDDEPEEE

SMILES	MIC [1] [µg/mL]	MIC [2] [µg/mL]	MIC (E. coli CCARM 1356) [µg/mL]	MIC (E. coli KCTC 1682; [7]) [µg/mL]	MIC (E. coli KCTC 1682; [8]) [µg/mL]	MIC [3] [µg/mL]	MIC [4] [µg/mL]	MIC (MRSA CCARM 3167) [µg/mL]	MIC (MRSA CCARM 3506) [µg/mL]	MIC [5] [µg/mL]	MIC (QRSA CCARM 3505; [9]) [µg/mL]	MIC (QRSA CCARM 3519; [10]) [µg/mL]	MIC [6] [µg/mL]	IC50 (E. coli DNA gyrase) [nM]	MIC (E. coli KCTC 1682; [11]) [µg/mL]	growth inhibition of K. pneumonia [4]	antibacterial activities against P. aeruginosa [5]	MIC (QRSA CCARM 3505; CCARM3505, 24 h) [µg/mL]	MIC (QRSA CCARM 3519; CCARM3519, 24 h) [µg/mL]	growth inhibition of P. aeruginosa ([5]; at 32 μg/mL)
CO[C@@H](C(N)=O)[C@H](NC(=O)c1ccc(NC(=O)c2ccc([N+](=O)[O-])cc2)cc1)C(=O)Nc1ccc(C(=O)Nc2ccc(C(=O)Nc3ccc(C(=O)O)cc3OC(C)C)c(O)c2OC(C)C)cc1 [Compound 11, cystobactamid 919-2, reference compound]	0.125 (≈ 0.136 µM)	2 (≈ 2.17 µM)	2 (≈ 2.17 µM)	1 (≈ 1.09 µM)	1 (≈ 1.09 µM)	0.25 (≈ 0.272 µM)	4 (≈ 4.35 µM)	0.25 (≈ 0.272 µM)	0.25 (≈ 0.272 µM)	4 (≈ 4.35 µM)	1 (≈ 1.09 µM)	1 (≈ 1.09 µM)	1 (≈ 1.09 µM)	950						
CO[C@H](C(=O)O)[C@H](NC(=O)c1ccc(NC(=O)c2ccc([N+](=O)[O-])cc2)cc1)C(=O)Nc1ccc(C(=O)Nc2ccc(C(=O)Nc3ccc(C(=O)O)cc3OC(C)C)c(O)c2OC(C)C)cc1 [Compound 13, coralmycin B, reference compound]	2 (≈ 2.17 µM)	4 (≈ 4.34 µM)	16 (≈ 17.4 µM)	4 (≈ 4.34 µM)	4 (≈ 4.34 µM)	4 (≈ 4.34 µM)	> 16	1 (≈ 1.09 µM)	1 (≈ 1.09 µM)	> 16			> 16	1070						
COc1cc(C(=O)O)ccc1NC(=O)c1ccc(NC(=O)c2ccc(NC(=O)[C@@H](NC(=O)c3ccc(NC(=O)c4ccc([N+](=O)[O-])cc4)cc3)[C@@H](OC)C(N)=O)cc2)c(OC(C)C)c1O [Compound 8, cystobactamid 891-2]	0.25 (≈ 0.28 µM)	1 (≈ 1.12 µM)	0.5 (≈ 0.561 µM)	0.25 (≈ 0.28 µM)		1 (≈ 1.12 µM)	> 32	0.5 (≈ 0.561 µM)	0.125 (≈ 0.14 µM)	4 (≈ 4.49 µM)	2 (≈ 2.24 µM)	1 (≈ 1.12 µM)	2 (≈ 2.24 µM)	50	0.25 (≈ 0.28 µM)	did not inhibit the growth	weak antibacterial activities			
CCOc1cc(C(=O)O)ccc1NC(=O)c1ccc(NC(=O)c2ccc(N)cc2)c(OC(C)C)c1O [Compound 7, Coralmycin I]	> 32	> 32	> 32	> 32		> 32	> 32	> 32	> 32	> 32	> 32	> 32	> 32							
O=C(O)c1cn(C2CC2)c2cc(N3CCNCC3)c(F)cc2c1=O [Cip, Ciprofloxacin, reference compound]		0.25 (≈ 0.754 µM)	64 (≈ 193 µM)	0.06 (≈ 0.181 µM)	0.06 (≈ 0.181 µM)	0.5 (≈ 1.51 µM)	0.015 (≈ 0.0453 µM)		2 (≈ 6.04 µM)	0.03 (≈ 0.0905 µM)			0.25 (≈ 0.754 µM)					128 (≈ 386 µM)	128 (≈ 386 µM)	
CCOc1cc(C(=O)O)ccc1NC(=O)c1ccc(NC(=O)c2ccc(NC(=O)[C@@H](NC(=O)c3ccc(NC(=O)c4ccc([N+](=O)[O-])cc4)cc3)[C@@H](OC)C(N)=O)cc2)c(OC(C)C)c1O [Compound 9, cystobactamid 905-2]	0.125 (≈ 0.138 µM)	0.5 (≈ 0.552 µM)	1 (≈ 1.1 µM)	0.5 (≈ 0.552 µM)		0.5 (≈ 0.552 µM)	> 32	0.25 (≈ 0.276 µM)	0.25 (≈ 0.276 µM)	8 (≈ 8.83 µM)	2 (≈ 2.21 µM)	1 (≈ 1.1 µM)	1 (≈ 1.1 µM)	130	0.25 (≈ 0.276 µM)	did not inhibit the growth	weak antibacterial activities			
CO[C@@H](C(N)=O)[C@H](NC(=O)c1ccc(NC(=O)c2ccc(N)cc2)cc1)C(=O)Nc1ccc(C(=O)Nc2ccc(C(=O)Nc3ccc(C(=O)O)cc3OC(C)C)c(O)c2OC(C)C)cc1 [Compound 2, Coralmycin D]	0.25 (≈ 0.281 µM)	4 (≈ 4.49 µM)	1 (≈ 1.12 µM)	1 (≈ 1.12 µM)	1 (≈ 1.12 µM)	1 (≈ 1.12 µM)	> 32	0.5 (≈ 0.562 µM)	0.5 (≈ 0.562 µM)	> 32	1 (≈ 1.12 µM)	1 (≈ 1.12 µM)	2 (≈ 2.25 µM)	510		did not inhibit the growth				did not inhibit the growth
CCOc1c(NC(=O)c2ccc(N)cc2)ccc(C(=O)Nc2ccc(C(=O)O)cc2OC(C)C)c1O [Compound 6, Coralmycin H]	> 32	> 32	> 32	> 32		> 32	> 32	> 32	> 32	> 32	> 32	> 32	> 32							
COc1cc(C(=O)O)ccc1NC(=O)c1ccc(NC(=O)c2ccc(N)cc2)c(OC(C)C)c1O [Compound 5, Coralmycin G]	> 32	> 32	> 32	> 32		> 32	> 32	> 32	> 32	> 32	> 32	> 32	> 32							
